Data as given in US9365556B2, “3,5-diaminopyrazole kinase inhibitors” (Axikin Pharmaceuticals, Inc., priority 2012, dated 2016).

How the values were obtained:
[1] = molecular target: T1, kinase domain protein of RC kinase (Homo sapiens, UniProt Q56UN5); experiment: Enzymatic assay for kinase inhibitory activity (Crebtide substrate, LANCE read-out); assay type: biochemical; settings: compound at 1 μM
T1 sequence (Q56UN5 1061-1324 limits assumed): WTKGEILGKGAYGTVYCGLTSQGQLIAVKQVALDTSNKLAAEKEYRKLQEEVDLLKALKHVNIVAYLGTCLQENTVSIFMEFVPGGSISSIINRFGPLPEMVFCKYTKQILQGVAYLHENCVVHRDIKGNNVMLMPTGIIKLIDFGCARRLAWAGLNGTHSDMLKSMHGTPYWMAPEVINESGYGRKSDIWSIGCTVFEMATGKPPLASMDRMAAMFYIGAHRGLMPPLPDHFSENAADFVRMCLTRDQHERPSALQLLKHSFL
Method in brief: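 Compound tested at 1 μM final in HEPES/MgCl2/DTT buffer with 50 nM Crebtide and kinase domain at 1 μM ATP; full-length kinase at 3 μM ATP after 45 min preincubation. Reaction 45 min at room temperature, stopped with EDTA, read by LANCE TR-FRET (665/615 nm). Activity binned as % inhibition at 1 μM.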

| Structure (SMILES) | inhibition at 1 µM [1] | melting point |
| --- | --- | --- |
| COc1ccccc1/C=N/c1[nH]nc(Nc2ccc(Cl)cc2)c1C#N [Compound A38] | ≤ 5% | 262 to 265 °C |
| COc1ccc(Nc2n[nH]c(/N=C/c3ccc([N+](=O)[O-])cc3)c2C#N)cc1 [Compound A46] | ≤ 5% | 242 to 248 °C |
| N#Cc1c(Nc2cccc(Cl)c2)n[nH]c1/N=C/c1ccccc1 [Compound A11] | 5 to 20% | 260 to 264 °C |
| NC(=O)c1c(Nc2ccccc2)n[nH]c1/N=C/c1ccc(O)c([N+](=O)[O-])c1 [Compound B9] | ≥ 50% | 275 to 277 °C |
| N#Cc1c(Nc2ccccc2)n[nH]c1/N=C/c1ccc([N+](=O)[O-])cc1 [Compound A19] | 5 to 20% | 290 to 294 °C |
| N#Cc1c(Nc2ccccc2)n[nH]c1/N=C/c1ccc(O)cc1 [Compound A22] | ≤ 5% | 241 to 245 °C |
| N#Cc1c(Nc2cccc(Cl)c2)n[nH]c1/N=C/c1ccc(OCCO)cc1 [Compound A88] | 5 to 20% | 229 to 232 °C |
| COc1ccc(Nc2n[nH]c(/N=C/c3ccc(O)cc3)c2C#N)cc1 [Compound A54] | 5 to 20% | 193 to 197 °C |
| COc1ccc(/C=N/c2[nH]nc(Nc3ccccc3Cl)c2C(N)=O)c(O)c1 [Compound B119] | 5 to 20% | 267 to 270 °C |
| COc1ccc(/C=N/c2[nH]nc(Nc3ccccc3Cl)c2C(N)=O)cc1[N+](=O)[O-] [Compound B118] | 5 to 20% | 304 to 306 °C |
